Source: ChEMBL document CHEMBL1201862, “PubChem BioAssay data set” (2004)
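Growth conditions: 96-well plates. Treatment: test compound, 48 hours, 5 concentrations. Analysis: linear interpolation between bracketing concentrations; unreached endpoints set to highest concentration. The concentration for 50% growth inhibition is given as GI50.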 Activity calls are given as the source filed them. Rule as the data show it: active = GI50 up to about 1.1 µM and inactive = higher.

Key:
Assay in all cases: DTP human tumour cell line panel, 48 h
786-0 = test system: 786-0
A549 = test system: A549
ACHN = test system: ACHN
CAKI-1 = test system: CAKI-1
CCRF-CEM = test system: CCRF-CEM
DLD-1 = test system: DLD-1
DMS-273 = test system: DMS-273
EKVX = test system: EKVX
HCT-116 = test system: HCT-116
HCT-15 = test system: HCT-15
HL-60 = test system: HL-60
HOP-92 = test system: HOP-92
IGROV-1 = test system: IGROV-1
K562 = test system: K562
KM-20L2 = test system: KM-20L2
KM12 = test system: KM12
LOX IMVI = test system: LOX IMVI
LXFL 529 = test system: LXFL 529
M14 = test system: M14
M19-MEL = test system: M19-MEL
MOLT-4 = test system: MOLT-4
Malme-3M = test system: Malme-3M
NCI-H226 = test system: NCI-H226
NCI-H23 = test system: NCI-H23
NCI-H522 = test system: NCI-H522
OVCAR-3 = test system: OVCAR-3
RPMI-8226 = test system: RPMI-8226
RXF 631 = test system: RXF 631
SF-268 = test system: SF-268
SF-295 = test system: SF-295
SF-539 = test system: SF-539
SK-MEL-28 = test system: SK-MEL-28
SK-MEL-2 = test system: SK-MEL-2
SK-OV-3 = test system: SK-OV-3
SN12C = test system: SN12C
SNB-19 = test system: SNB-19
SNB-75 = test system: SNB-75
SNB-78 = test system: SNB-78
SR = test system: SR
SW-620 = test system: SW-620
TK-10 = test system: TK-10
U-251 = test system: U-251
UACC-257 = test system: UACC-257
UACC-62 = test system: UACC-62
UO-31 = test system: UO-31
XF498 = test system: XF498

With `CC(C)c1ccccc1NC(=O)CCC(=O)NN` as the molecule, how does the GI50 (786-0) read?
Its GI50 is > 100 µM (inactive).

And the GI50 (A549)?
Its GI50 is > 100 µM (inactive).

What about the GI50 (ACHN) of the same molecule?
The GI50 was > 100 µM (inactive).

And the GI50 (CAKI-1)?
Its GI50 is > 100 µM (inactive).

And the GI50 (CCRF-CEM)?
Its GI50 is > 100 µM (inactive).

And the GI50 (DLD-1)?
The GI50 was > 100 µM (inactive).

And the GI50 (DMS-273)?
The GI50 was > 100 µM (inactive).

And the GI50 (EKVX)?
Its GI50 is > 100 µM (inactive).

And the GI50 (HCT-116)?
Its GI50 is > 100 µM (inactive).

And the GI50 (HCT-15)?
The GI50 was > 100 µM.

And the GI50 (HL-60)?
The GI50 was > 100 µM (inactive).

What about the GI50 (HOP-92) of the same molecule?
The GI50 was > 100 µM (inactive).

What about the GI50 (IGROV-1) of the same molecule?
The GI50 was > 100 µM (inactive).

And the GI50 (K562)?
The GI50 was > 100 µM (inactive).

And the GI50 (KM-20L2)?
Its GI50 is > 100 µM (inactive).

What about the GI50 (KM12) of the same molecule?
Its GI50 is > 100 µM (inactive).

And the GI50 (LOX IMVI)?
The GI50 was > 100 µM (inactive).

And the GI50 (LXFL 529)?
Its GI50 is > 100 µM (inactive).

What about the GI50 (M14) of the same molecule?
The GI50 was > 100 µM (inactive).

What about the GI50 (M19-MEL) of the same molecule?
The GI50 was > 100 µM (inactive).

And the GI50 (MOLT-4)?
The GI50 was > 100 µM (inactive).

And the GI50 (Malme-3M)?
The GI50 was > 100 µM (inactive).

And the GI50 (NCI-H226)?
Its GI50 is > 100 µM (inactive).

What about the GI50 (NCI-H23) of the same molecule?
Its GI50 is > 100 µM (inactive).

What about the GI50 (NCI-H522) of the same molecule?
The GI50 was > 100 µM (inactive).

And the GI50 (OVCAR-3)?
Its GI50 is > 100 µM (inactive).

What about the GI50 (RPMI-8226) of the same molecule?
The GI50 was > 100 µM (inactive).

What about the GI50 (RXF 631) of the same molecule?
The GI50 was > 100 µM (inactive).

And the GI50 (SF-268)?
Its GI50 is > 100 µM (inactive).

And the GI50 (SF-295)?
The GI50 was > 100 µM (inactive).

And the GI50 (SF-539)?
The GI50 was > 100 µM (inactive).

What about the GI50 (SK-MEL-28) of the same molecule?
Its GI50 is > 100 µM (inactive).

What about the GI50 (SK-MEL-2) of the same molecule?
The GI50 was > 100 µM (inactive).

And the GI50 (SK-OV-3)?
Its GI50 is > 100 µM (inactive).

What about the GI50 (SN12C) of the same molecule?
Its GI50 is > 100 µM (inactive).

What about the GI50 (SNB-19) of the same molecule?
The GI50 was > 100 µM (inactive).

And the GI50 (SNB-75)?
The GI50 was > 100 µM (inactive).

What about the GI50 (SNB-78) of the same molecule?
Its GI50 is > 100 µM (inactive).

What about the GI50 (SR) of the same molecule?
Its GI50 is > 100 µM (inactive).

What about the GI50 (SW-620) of the same molecule?
Its GI50 is > 100 µM (inactive).

What about the GI50 (TK-10) of the same molecule?
The GI50 was > 100 µM (inactive).

And the GI50 (U-251)?
The GI50 was > 100 µM (inactive).

And the GI50 (UACC-257)?
Its GI50 is > 100 µM (inactive).

And the GI50 (UACC-62)?
The GI50 was > 100 µM (inactive).

And the GI50 (UO-31)?
Its GI50 is > 100 µM (inactive).

What about the GI50 (XF498) of the same molecule?
The GI50 was > 100 µM (inactive).
